From US20190365741A1, “COMBINATIONS OF THE CDK4/6 INHIBITOR LEE011 AND THE MEK1/2 INHIBITOR TRAMETINIB, OPTIONALLY FURTHER COMPRISING THE PI3K INHIBITOR BYL719 TO TREAT CANCER” (Novartis AG, priority 2015, published 2019)
Entries after “also recorded” stand apart in the source; their conditions may differ.

How the values were obtained:
Format in all cases: cell-based
DLD-1 = assay: Cell proliferation (cell count by microscopy), single agents and combinations; details: Homo sapiens; DLD-1, 72 h, concentration giving 50% of cell counts relative to DMSO
Protocol: (§1) The compounds were dissolved in 100% DMSO (Sigma, Catalog number D2650) at concentrations of 20 mM and stored at −20° C. until use.
(§2) Colorectal cancer cell lines used for this study were obtained, cultured and processed from commercial vendors ATCC, CellBank Australia, DMSZ, ECACC, and HSRRB (Table 1). All cell line media were supplemented with 10% FBS (HyClone, Catalog number SH30071.03).
(§3) Cell lines were cultured in 37° C. and 5% CO2 incubator and expanded in T-75 flasks. In all cases cells were thawed from frozen stocks, expanded through≥1 passage using 1:3 dilutions, counted and assessed for viability using a ViCell counter (Beckman-Coulter) prior to plating. […] All cell lines were determined to be free of mycoplasma contamination as determined by a PCR detection methodology performed at Idexx Radil (Columbia, Mo., USA) and correctly identified by detection of a panel of SNPs.
(§4) The debris counts were subtracted from raw nuclei counts.
(§5) The compound's effect on cell proliferation was calculated from the cell counts of the treatments relative to the cell counts of the negative control (DMSO), in FIG. 1 and FIG. 3 denoted as ‘Normalized cell count’ (=‘xnorm’) on the y-axis. […] The model input were inhibition values per drug dose:
(§6) I=1−xnorm • I: inhibition • xnorm: normalized cell count (median of three replicates)
(§7) To favor combination effects at high inhibition the residuals were weighted with the observed inhibition at the same dose point. The overall combination score C of a drug combination is the sum of the weighted residuals over all concentrations:
(§8) C=ΣCone (Idata*(Idata−Imodel)) • Idata: measured inhibition Imodel: inhibition according to HSA null hypothesis
(§9) Robust combination z-scores (zC) were calculated as the ratio of the treatments' combination scores C and the median absolute deviation (mad) of non-interacting combinations:
(§10) zC=C/mad(Czero) • Czero: combination scores of non-interacting combinations zC is an indicator for the strength of the combination with:
(§11) In order to assess the effect of the triple combination all individual compounds, all three pair wise combinations, and the triple combination were tested in the same experiment.
(§12) (Boston Bioproducts, Catalog number BM-220).

HT-29 = assay: as above; details: Homo sapiens; HT-29, 72 h, concentration giving 50% of cell counts relative to DMSO
Protocol: as §1, §2, §3, §4, §5, §6, §7, §8, §9, §10, §11, §12

LoVo = assay: as above; details: Homo sapiens, 96 h, concentration giving 50% of cell counts relative to DMSO
Protocol: as §1, §2, §3, §4, §5, §6, §7, §8, §9, §10, §11, §12

COLO-320 = assay: as above; details: Homo sapiens; COLO-320, 72 h, concentration giving 50% of cell counts relative to DMSO
Protocol: as §1, §2, §3, §4, §5, §6, §7, §8, §9, §10, §11, §12

COLO-205 = assay: as above; details: Homo sapiens; COLO-205, 72 h, concentration giving 50% of cell counts relative to DMSO
Protocol: as §1, §2, §3, §4, §5, §6, §7, §8, §9, §10, §11, §12

NCI-H508 = assay: as above; details: Homo sapiens; NCI-H508, 72 h, concentration giving 50% of cell counts relative to DMSO
Protocol: as §1, §2, §3, §4, §5, §6, §7, §8, §9, §10, §11, §12

LIM2551 = assay: as above; details: LIM2551, 72 h, concentration giving 50% of cell counts relative to DMSO
Protocol: as §1, §2, §3, §4, §5, §6, §7, §8, §9, §10, §11, §12

LS411N = assay: as above; details: Homo sapiens, LS-411N, 72 h, concentration giving 50% of cell counts relative to DMSO
Protocol: as §1, §2, §3, §4, §5, §6, §7, §8, §9, §10, §11, §12

OUMS-23 = assay: as above; details: OUMS-23, 72 h, concentration giving 50% of cell counts relative to DMSO
Protocol: as §1, §2, §3, §4, §5, §6, §7, §8, §9, §10, §11, §12

RKO = assay: as above; details: Homo sapiens, 72 h, concentration giving 50% of cell counts relative to DMSO
Protocol: as §1, §2, §3, §4, §5, §6, §7, §8, §9, §10, §11, §12

LS-180 = assay: as above; details: Homo sapiens, LS180; LS-180, 72 h, concentration giving 50% of cell counts relative to DMSO
Protocol: as §1, §2, §3, §4, §5, §6, §7, §8, §9, §10, §11, §12

HCT-116 = assay: as above; details: Homo sapiens; HCT-116, 72 h, concentration giving 50% of cell counts relative to DMSO
Protocol: as §1, §2, §3, §4, §5, §6, §7, §8, §9, §10, §11, §12

SW480 = assay: as above; details: Homo sapiens; SW480, 72 h, concentration giving 50% of cell counts relative to DMSO
Protocol: as §1, §2, §3, §4, §5, §6, §7, §8, §9, §10, §11, §12

SW837 = assay: as above; details: Homo sapiens; SW837, 72 h, concentration giving 50% of cell counts relative to DMSO
Protocol: as §1, §2, §3, §4, §5, §6, §7, §8, §9, §10, §11, §12

GP2d = assay: as above; details: 72 h, concentration giving 50% of cell counts relative to DMSO
Protocol: as §1, §2, §3, §4, §5, §6, §7, §8, §9, §10, §11, §12

[1] = test system: 15 colorectal cancer cell lines; assay: Cell proliferation, summary over the cell line panel; details: single agent, across the cell lines in which growth was inhibited
Protocol: as §1, §2, §4
as §5, with “dose: […]” for “dose:”
as §12

Row | IC50 (DLD-1) [µM] | IC50 (HT-29) [µM] | IC50 (LoVo) [µM] | IC50 (COLO-320) [µM] | IC50 (COLO-205) [µM] | IC50 (NCI-H508) [µM] | IC50 (HCT-116) [µM] | IC50 (SW480) [µM] | IC50 (SW837) [µM] | IC50 values, magnitude in words [1] | Structure (SMILES) | IC50 (LIM2551) [µM] | IC50 (LS411N) [µM] | IC50 (OUMS-23) [µM] | IC50 (RKO) [µM] | IC50 (LS-180) [µM] | IC50 (GP2d) [µM]
1 | > 10 | 2.7 | > 10 | 8.3 | > 10 | 0.5 | 9.8 | > 10 | > 10 | mostly micromolar | Cc1nc(NC(=O)N2CCC[C@H]2C(N)=O)sc1-c1ccnc(C(C)(C)C(F)(F)F)c1 [BYL719, (S)-Pyrrolidine-1,2-dicarboxylic acid 2-amide 1-({4-methyl-5-[2-(2,2,2-trifluoro-1,1-dimethyl-ethyl)-pyridin-4-yl]-thiazol-2-yl}-amide)] | 2.3 | > 10 | > 10 | 3.9 | > 10 | 0.5
2 | 0.153 | 0.004 | 0.007 | > 0.3 | 0.004 | 0.007 | 0.038 | 0.055 | 0.051 | nanomolar to sub-micromolar | CC(=O)Nc1cccc(-n2c(=O)n(C3CC3)c(=O)c3c(Nc4ccc(I)cc4F)n(C)c(=O)c(C)c32)c1 [Trametinib, N-{3-[3-cyclopropyl-5-(2-fluoro-4-iodo-phenylamino)6,8-dimethyl-2,4,7-trioxo-3,4,6,7-tetrahydro-2H-pyrido[4,3-d]pyrimidin-1-yl]phenyl}acetamide] | 0.005 | 0.007 | > 0.3 | 0.021 | 0.018 | > 0.3

Row | Structure (SMILES) | IC50 (DLD-1) [µM] | IC50 (HT-29) [µM] | IC50 (LoVo) [µM] | IC50 (COLO-320) [µM] | IC50 (COLO-205) [µM] | IC50 (NCI-H508) [µM] | IC50 (HCT-116) [µM] | IC50 (SW480) [µM] | IC50 (SW837) [µM] | IC50 values, magnitude in words [1] | IC50 (LIM2551) [µM] | IC50 (LS411N) [µM] | IC50 (OUMS-23) [µM] | IC50 (RKO) [µM] | IC50 (LS-180) [µM] | IC50 (GP2d) [µM]
3 | CN(C)C(=O)c1cc2cnc(Nc3ccc(N4CCNCC4)cn3)nc2n1C1CCCC1 [LEE011, 7-Cyclopentyl-2-(5-piperazin-1-yl-pyridin-2-ylamino)-7H-pyrrolo[2,3-d]pyrimidine-6-carboxylic acid dimethylamide] | 4.1 | 0.8 | 0.8 | 2.8 | 1.1 | 0.7 | 4.5 | 1.6 | > 10 | mostly micromolar; also recorded: sub-micromolar to micromolar | 1.3 | 2.1 | > 10 | 1.5 | 1.8 | 4.5
